This experiment concerns the target T1, human IDO1 (Homo sapiens, UniProt P14902).
T1 construct: expressed in transfected cells
Kind of experiment: IDO inhibition assay in HEK293 cells stably expressing human IDO1 (Example 252). The class given is cell-based. The conditions noted are these: 20 hours incubation, kynurenine by Ehrlich reagent, absorbance at 490 nm, read-out: HEK Human IDO-1 Potency. As for the experimental part:
1HEK293 cells were transfected with a pCDNA-based mammalian expression vector harboring human IDO1 cDNA (NM 002164.2) by electroporation. They were cultured in medium (DMEM with 10% FBS) containing 1 mg/ml G418 for two weeks. Clones of HEK293 cells that stably expressed human IDO1 protein were selected and expanded for IDO inhibition assay.
The human IDO1/HEK293 cells were seeded at 10,000 cells per 50 μL per well with RPMI/phenol red free media contains 10% FBS in a 384-well black wall clear bottom tissue culture plate (Matrix Technologies LLC) 100 nL of certain concentration of compound was then added to each well using ECHO liquid handling systems. The cells were incubated for 20 hours in 37° C. incubator with 5% CO2.
The compound treatments were stopped by adding Trichloroacetic Acid (Sigma-Aldrich) to a final concentration at 0.2%. The cell plate was further incubated at 50° C. for 30 minute. The equal volume supernatant (20 μL) and 0.2% (w/v) Ehrlich reagent (4-dimethylaminobenzaldehyde, Sigma-Aldrich) in glacial acetic acid were mixed in a new clear bottom 384-well plate. This plate was then incubated at room temperature for 30 minute. The absorbance at 490 nm was measured on Envision plate reader.
T1 sequence (P14902 whole entry): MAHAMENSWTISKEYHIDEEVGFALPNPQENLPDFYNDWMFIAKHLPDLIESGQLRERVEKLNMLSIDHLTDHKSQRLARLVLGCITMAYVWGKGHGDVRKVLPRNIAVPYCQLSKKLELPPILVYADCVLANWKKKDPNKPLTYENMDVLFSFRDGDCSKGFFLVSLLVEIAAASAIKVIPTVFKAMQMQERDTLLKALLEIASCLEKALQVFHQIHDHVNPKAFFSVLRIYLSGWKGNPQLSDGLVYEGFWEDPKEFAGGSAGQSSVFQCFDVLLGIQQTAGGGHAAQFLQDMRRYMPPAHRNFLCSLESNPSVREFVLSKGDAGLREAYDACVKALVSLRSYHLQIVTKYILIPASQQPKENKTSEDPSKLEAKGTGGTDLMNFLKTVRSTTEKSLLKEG
Consider “N-(4-chlorophenyl)-2-(cis-4-(6-fluoroquinolin-4-yl)-1-hydroxycyclohexyl)propanamide [Example 231]”, for which the IC50 is less than 250 nM.

For the compound `CC(C(=O)Nc1ccc(Cl)cc1)C1CCC(c2ccnc3c2ncn3C)CC1` (mixture of isomers) [Example 250, (+/−)-Cis and trans-N-(4-chlorophenyl)-2-(4-(3-methyl-3H-imidazo[4,5-b]pyridin-7-yl)cyclohexyl)propanamide], the IC50 is less than 250 nM.

In the case of `O=C(C[C@H]1CC[C@@H](c2ccnc3ccc(F)cc32)CC1)NC1CCCCC1` [Example 142, N-cyclohexyl-2-((cis)-4-(6-fluoroquinolin-4-yl)cyclohexyl) acetamide], the IC50 is less than 250 nM.

With `COCC(C(=O)Nc1ccc(Cl)cc1)N1CCN(c2ccnc3ccc(F)cc23)CC1` (single isomer, unassigned) [Example 136, N-(4-chlorophenyl)-2-(4-(6-fluoroquinolin-4-yl)piperazin-1-yl)-3-methoxypropanamide], the IC50 is more than 250 nM.

In the case of “N-(4-chlorophenyl)-2-(trans-4-(6-fluoroquinolin-4-yl)-1-hydroxycyclohexyl)propanamide [Example 229]”, the IC50 is less than 50 nM.

In the case of “N-(4-chlorophenyl)-2-(cis-4-(6-fluoroquinolin-4-yl)-1-hydroxycyclohexyl)propanamide [Example 232]”, the IC50 was less than 50 nM.

On to `C[C@@H](C(=O)Nc1cccc(C(F)F)c1)[C@H]1CC[C@@H](c2ccnc3ccc(F)cc32)CC1` (relative stereo) [Example 63, (R)-N-(3-(difluoromethyl)phenyl)-2-((cis)-4-(6-fluoroquinolin-4-yl)cyclohexyl)propanamide], for which the IC50 is less than 50 nM.

With `C[C@@H](C(=O)NC1CCCCC1)[C@H]1CC[C@@H](c2ccnc3ccc(F)cc32)CC1` (relative stereo) [Example 141, (R)-N-cyclohexyl-2-((cis)-4-(6-fluoroquinolin-4-yl)cyclohexyl) propanamide], the IC50 was less than 50 nM.

As to `CC(C(=O)O)c1ccc(C[C@@H](C(=O)Nc2ccc(Cl)cc2)[C@H]2CC[C@@H](c3ccnc4ccccc43)CC2)cc1` (single isomer, unassigned) [Example 87b], the IC50 is less than 50 nM.

Turning to “N-(4-chlorophenyl)-2-(trans-4-(6-fluoroquinolin-4-yl)-1-hydroxycyclohexyl)propanamide [Example 230]”, the IC50 is less than 250 nM.

`CC(C(=O)O)c1ccc(C[C@@H](C(=O)Nc2ccc(Cl)cc2)[C@H]2CC[C@@H](c3ccnc4ccc(F)cc43)CC2)cc1` (single isomer, unassigned) [Example 139]: the IC50 is less than 50 nM.

For the origin of these results see patent US10533014B2, “Immunoregulatory agents” (Flexus Biosciences, Inc., priority 2014, dated 2020).
